Results taken from patent publication EP1655287A1, “PROBE FOR DISEASES WITH AMYLOID ACCUMULATION, AMYLOID-STAINING AGENT, REMEDY AND PREVENTIVE FOR DISEASES WITH AMYLOID ACCUMULATION AND DIAGNOSTIC PROBE AND STAINING AGENT FOR NEUROFIBRILLARY CHANGE” (priority 2003, dated 2005).
Like-named read-outs stand apart in the source and are kept apart here.

Tests used:
[1] = Acute toxicity testing, intravenous administration; format: in vivo; conditions: male Crj:CD1 mice, via tail vein, observed up to 7 days; for MTD at 168 h: mouse, in vivo, iv, read-out: Maximum Tolerated Dose (mg/kg, intravenous administration)
Experimental: The following explanation is made of testing methods for properties of the compounds of the present invention. (A) Testing of acute toxicity Acute toxicity of the inventive compounds was determined employing mice by intravenous administration. Male Crj:CD1 mice were used and divided into groups of 4 mice, with an average weight of each group of 31-32 g. […] Up to 7 days after administration, observations were made.

Amyloid β-protein = assay: Screening of the degree of β-structure recognition (fluorescence, in the presence of Congo red); format: binding; conditions: test compound 5 µM, amyloid β-protein 5 µM, Congo red 0.1 µM, phosphate buffer pH 7.4
senile plaques = biological target: T1, senile plaques (Homo sapiens, UniProt P05067); assay: Staining of senile plaques and diffuse plaques in brain sections, compared with thioflavin S, BSB or anti-Aβ antibody 6F/3D immunostaining; format: binding, patient with Alzheimer's disease; conditions: 100 µM compound in 50% ethanol; for staining properties in sections of the brain of a patient with Alzheimer's disease: compared with thioflavin S (and BSB) on adjacent sections; for staining properties compared with immunostaining of anti-Aβ antibody 6F/3D: adjacent sections immunostained with 6F/3D
T1 construct: The former has, as the main component, amyloid β-protein (Aβ protein) taking β-sheet structures; from tissue; host or cells: paraffin-embedded temporal lobe or hippocampus sections of an Alzheimer's disease patient's brain (Fukushimura Hospital)
T1 sequence (P05067 672-713 limits assumed): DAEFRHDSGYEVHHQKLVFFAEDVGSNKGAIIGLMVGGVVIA
Excerpt: The following explanation is made about testing of staining properties of the compounds of the present invention on brain sections of an Alzheimer's disease patient. • (1) Temporal lobe or hippocampus specimens of the brain of a patient who had been definitely diagnosed pathologically as Alzheimer's disease and of a normal aged individual were used. These specimens were provided from Fukushimura Hospital, our joint research facility, with the consent to their use for research purpose received from the bereaved family of the patient (BF Research Laboratories Institutional Ethics Board Permission No. RS-99-02). • (2) The brain tissues embedded in paraffin were sliced 6 or 8 µm thick, extended on slides, and dried. The paraffin-embedded brain sections were deparaffined by washing sequentially with xylene (10 minutes, twice), 100% ethanol (15 minutes, twice), 95% ethanol (15 minutes, twice), and a stream of water (10 minutes). • (3) Pre-treatment for staining with compounds of the present invention involved treating the sections for eliminating self-fluorescence due to lipofuscin. First, the deparaffined sections were immersed into a 10% formalin solution for 60 minutes and washed with PBS for 5 minutes, followed by immersion into a 0.25% solution of KMnO4 for 90 minutes. After washing twice with PBS for 2 minutes each, the sections were immersed into a solution of 0.1% K2S2O5/oxalic acid for about 30 seconds each, and then washed three times with PBS for 2 minutes each. • (4) About 150 µl of a 100 µM solution of a compound of the present invention dissolved in 50% ethanol was added dropwise onto the sections and allowed the reaction to be carried out for 10 minutes. The sections were dipped into tap water five times, and then 50% ethanol three to five times, followed by immediate classification. After that, the sections were immersed into PBS for 60 minutes, enclosed with Fluor Save Reagent (Calbiochem), and examined under a fluorescent microscope (Nikon, Eclips E800). Pictures were taken using a digital camera (Plaroid PDMCII).
Immunostaining was carried out as follows. • (a) Procedures for immunostaining amyloid β-protein: • (1) After the sections were deparaffined, the sections were washed twice in distilled water for 2 minutes each, and tissues were marked with an Immunopen. About 150 µl of formic acid was added dropwise and allowed to stand at room temperature for 5 minutes. The sections were washed with tap water for 5 minutes and immersed into cold PBS-Tween 20 for 2 minutes, and then about 150 µl of a 0.05% trypsin solution was added dropwise and allowed the reaction to be carried out at 37°C for 15 minutes. • (2) In an ice bath, the sections were washed twice with cold PBS-Tween 20 for 5 minutes each, and two drops of blocking serum were added and allowed the reaction to be carried out at 37°C for 15 minutes. Excess water was removed, and about 150 µl of 6F/3D, an antibody specific to amyloid β-protein (DAKO; diluted 1:50) was added dropwise and allowed the reaction to be carried out at 37°C for 1 hour. • (3) Further, after washing five times with cold PBS-Tween 20 for 2 minutes each, two drops of a solution of goat antimouse IgG (H+L) conjugated to biotin were added and allowed the reaction to be carried out at 37°C for 1 hour. After that, the sections were washed three times with cold PBS-Tween 20 for 2 minutes each, and two drops of ABS solution (a streptavidin-biotin-peroxidase complex solution) were added and allowed to stand for 30 minutes. The sections were again washed three times with cold PBS-Tween 20 for 2 minutes each, and about 150 µl of DAB solution (prepared by dissolving 10 mg of DAB in 20 ml of 0.05 mol/l Tris-HCl buffer and adding 100 µl of 3% hydrogen peroxide immediately before use) were added and allowed the color to be developed sufficiently. Then, the sections were washed with distilled water for 1 minute to stop the reaction, enclosed, and examined under a microscope.

[2] = Blood-brain barrier permeability after intravenous administration; conditions: for Plasma: mice, content in plasma two minutes after intravenous administration; for tissue uptake at 2 min: mouse, brain, iv
Experimental: (§1) (B) Testing of blood-brain barrier permeability Measurements of blood-brain barrier permeability were made according to the following procedures. Compounds of the present invention were intravenously administered to mice to determine their in vivo blood-brain barrier permeability. • (1) Mice utilized Slc:ICR weighing 30-40 g (7 weeks old, n=3) (Nippon SLC). • (2) A test compound was dissolved in a mixture of 1N HCl, polyethylene glycol 400, and DMSO, or in DMSO or ethyl alcohol, and then diluted with purified water, and injected via tail vein. Two minutes after administration, the mice, under ether anesthesia, were subjected to taking blood from the abdominal aorta with a heparin-treated syringe and removing the brain. • (3) After taking blood, blood samples were centrifuged at 14,000 rpm at 4°C for 10 minutes, and their supernatants were kept at -80°C as plasma sample. The brain (including cerebellum) was kept at -80°C after its removal. • (4) The plasma sample, when used, was thawed, diluted with purified water, and then applied to a conditioned C18 solid-phase extraction cartridge (bond elute C18, 200 mg, Varian), followed by elution with methyl alcohol. Alternatively, after thawing the plasma sample, a diethyl ether/cyclohexane mixture was added, and the mixture was shaken, and then centrifuged to separate an oil layer. • (5) The brain material, when used, was subjected to measuring its wet weight with the brain remaining frozen, and saline was added to the brain for homogenization. The homogenate was centrifuged for 10 minutes, and the supernatant was applied to a conditioned C18 solid-phase extraction cartridge and eluted with methyl alcohol. Alternatively, after measuring the wet weight of the frozen brain, a diethyl ether/cyclohexane mixture was added to the brain, and the mixture was homogenized, shaken, and then centrifuged to separate an oil layer. • (6) The absorbance and fluorescence were detected employing high performance liquid chromatography. • (7) For each of the plasma and brain, the content of the test compound in the plasma or brain (%ID (injected dose)/ml or g) was determined, relative to the administered dose.

[3] = mouse, in vivo, iv, 2 min
Experimental: as §1

Row | Compound | MTD at 168 h [1] [mg/kg] | Degree of β-structure recognition (%) (Amyloid β-protein) | staining properties in sections of the brain of a patient with Alzheimer's disease (senile plaques) | Plasma [2] | tissue uptake at 2 min [2] [%ID/g] | staining properties compared with immunostaining of anti-Aβ antibody 6F/3D (senile plaques) | Maximum Tolerated Dose (mg/kg, intravenous administration) [1] | Brain [3] | Plasma [3]
1 | Cc1nc(/C=C/c2cnc(N(C)C)s2)oc1C [BF-214, 2-(dimethylamino)-5-[2-(4,5-dimethyloxazol-2-yl)ethenyl]thiazole] | ≥ 10 | 58.9 | stains senile plaques | 2.1 %ID/g or ml | 8.8 |  |  |  | 
2 | CN(C)c1ncc(/C=C/c2nc3ccccc3o2)s1 [BF-197, 2-[2-(2-dimethylaminothiazol-5-yl)ethenyl]benzoxazole] | ≥ 10 | 71.8 | mainly stains senile plaques | 1.9 %ID/g or ml | 15 | stains senile plaques |  |  | 
3 | CN(C)c1ncc(/C=C/c2nc3ccc(OCCF)cc3o2)s1 [BF-227, 2-[2-(2-dimethylaminothiazol-5-yl)ethenyl]-6-(2-fluoroethyloxy)benzoxazole] | ≥ 10 | 70.2 | mainly stains senile plaques | 2.1 %ID/g or ml | 7.9 | stains senile plaques (Fig. 16, wedge-shaped arrowheads) and diffuse plaques |  |  | 
4 | 2-[2-(5-dimethylaminothiazol-2-yl)ethenyl]benzoxazole [BF-215] |  | 82.6 | stains senile plaques |  |  |  | ≧ 10 mg/kg | 8.8 %ID/g or ml | 2.5 %ID/g or ml
